From ChEMBL document CHEMBL1156829 (Proc Natl Acad Sci U S A, 2008)
Numbered stars: 1 amine (or outer) side, 2 acyl side, 3 side chain; on linkers, the order of the positions; unused ones are H or OH. Square brackets hold non-standard residues; d marks the D form. Peptide text beside a SMILES is read from it. * marks the point of attachment. X1 = CCC(=O)CC(O)C[C@@H](C)C[C@H](N[*:1])C(=O)[*:2]; Hexenoyl(2E,4S-Me) = CC[C@H](C)/C=C/C(=O)*; Leu(3R-OH) = CC(C)[C@@H](O)[C@H](N)C(=O)O; NH((S)CH(Me)CH2NMe2) = C[C@@H](CN(C)C)N*; Pro(4S-Me) = C[C@@H]1CN[C@H](C(=O)O)C1; Aib = CC(C)(N)C(=O)O; βAla = NCCC(=O)O

What was measured:
Plasmodium falciparum [1] = assay: NOVARTIS: Inhibition of Plasmodium falciparum 3D7 (drug-susceptible) proliferation in erythrocyte-based infection assay; assay type: functional, organism-based; conditions: Plasmodium falciparum, 3D7
Plasmodium falciparum [2] = assay: NOVARTIS: Inhibition of Plasmodium falciparum W2 (drug-resistant) proliferation in erythrocyte-based infection assay; assay type: functional, organism-based; conditions: Plasmodium falciparum, W2; read-out: EC50
[3] = NOVARTIS: Cytotoxicity against human hepatocellular carcinoma cell line (Huh7); assay type: toxicity, cell-based, Huh-7; conditions: Huh7 cells (hepatocellular carcinoma cell line)

SMILES | EC50 (Plasmodium falciparum [1]) [nM] | EC50 (Plasmodium falciparum [2]) [nM] | CC50 [3] [nM]
Cc1cc(C)n(-c2ccc(NC(=O)C3CCN(Cc4cnc(C)s4)CC3)cc2)n1 | 811 | 840 | > 100000
N#CC(C#N)C(/C(Sc1ccc([N+](=O)[O-])cc1)=C(/O)c1ccccc1)c1cccs1 (stereo not drawn) | > 403 | > 1250 | > 10000
CC(=O)N(C)C1=C(N2CCCCCC2)C(=O)c2ccccc2C1=O | 35.8 | 38.6 | 1860
N#C/C(=C\c1cc2ccccc2nc1Cl)c1nc(-c2ccc(Cl)c(Cl)c2)cs1 | > 1250 | > 1010 | > 10000
CCc1ccc(C(=O)N(C)CCCNc2ccnc3cc(Cl)ccc23)cc1 | 337 | 250 | 2860
CC(=O)N(Cc1ccc(F)cc1)C1=C(NCc2ccccc2)C(=O)c2ccccc2C1=O | 680 | 679 | > 10000
CCOC(=O)C1=C(C)NC2=C(C(=O)CC(c3ccc(Cl)cc3)C2)C1c1ccc(Br)cc1 (stereo not drawn) | 378 | 116 | > 100000
CCN(CC)CCCC(C)Nc1nc(/C=C/c2ccccc2OC)nc2cc(Cl)ccc12 (stereo not drawn) | 878 | 688 | > 10000
CCOC(=O)C1CCN(C(=O)C(=O)Nc2ccc3nc4n(c(=O)c3c2)CCCCC4)CC1 | 998 | 580 | > 100000
CCCC(=O)Oc1ccccc1-c1nc2ccccn2c1NC(C)(C)CC(C)(C)C | 793 | 44 | 1960
Nc1c(C(=O)Nc2ccc(F)cc2)sc2nc3c(c(-c4cccs4)c12)CCCC3 | 1130 | 1710 | > 100000
Cc1cnc(CNc2cc(-c3ccccn3)nc(-c3ccccn3)n2)nc1 | 465 | 646 | > 10000
Cc1ccc2nc(C)cc(NCCCN(C)C)c2c1 | 410 | 824 | > 3620
CN1CCCC1CCNc1ncc(C(=O)NCc2ccccc2)c(NC2CCCC2)n1 (stereo not drawn) | 658 | > 1250 | > 10000
COc1cc(C2c3[nH]c4ccccc4c3C[C@H]3C(=O)N(CCc4ccccc4)CC(=O)N23)cc(OC)c1OC (stereo partly drawn) | 611 | 374 | > 100000
COc1ccc(-n2nc(C(=O)NCC(=O)NCCCN3CCOCC3)c3ccccc3c2=O)cc1Cl | 1260 | > 1250 | > 10000
COC(=O)c1ccc(S(=O)(=O)N2CCC3(CC2)Nc2ccccc2-n2cccc23)cc1 | > 1250 | > 163 | > 10000
COc1ccc(-c2c[n+](CC(=O)c3cccc(OC)c3)c3n2CCC3)cc1 | 954 | 530 | > 100000
CCOC(=O)c1c(NC(=O)COc2ccccc2[N+](=O)[O-])sc(C(C)=O)c1C | > 1250 | > 853 | > 10000
CCOC(=O)C1=C(CC)NC2=C(C(=O)CCC2)C1c1ccc(N(C)C)cc1 (stereo not drawn) | 8700 | 1910 | > 100000
COc1ccc(Nc2nc(-c3cc4cc(OC)ccc4oc3=O)cs2)c(OC)c1 | > 12500 | > 7470 | > 100000
Cc1ccc(N=C2NC(=O)/C(=C\c3cc(C)n(-c4cccc([N+](=O)[O-])c4)c3C)S2)cc1 | 442 | 488 | > 10000

SMILES | EC50 (Plasmodium falciparum [1]) [nM] | EC50 (Plasmodium falciparum [2]) [nM] | CC50 [3] [nM]
CCc1ccc(-n2nnc(C(=O)Nc3ccccc3Cl)c2C)cc1 | > 1680 | 77.5 | > 10000
CCC(=O)CC(O)C[C@@H](C)C[C@H](NC(=O)[C@@H]1C[C@H](C)CN1C(=O)/C=C/[C@@H](C)CC)C(=O)N[C@H](C(=O)NC(C)(C)C(=O)N[C@@H](CC(C)C)C(=O)N[C@@H](CC(C)C)C(=O)NC(C)(C)C(=O)NC(C)(C)C(=O)NCCC(=O)N[C@@H](C)CN(C)C)[C@H](O)C(C)C (stereo partly drawn) ({Hexenoyl(2E,4S-Me)}-[Pro(4S-Me)][X1][Leu(3R-OH)][Aib]LL[Aib][Aib][βAla]-{NH((S)CH(Me)CH2NMe2)}) | 194 | 651 | 6470
CCc1c(C(C)S(=O)(=O)c2ccc(C)cc2)[nH]c(=O)n1-c1ccc(OC(F)(F)F)cc1 (stereo not drawn) | 47.8 | 16.2 | 5750
CC(C)CN(C(C(=O)NC(CN1CCCC1)c1ccccc1)c1ccccc1)S(=O)(=O)c1ccccn1 (stereo not drawn) | 1320 | 682 | > 10000
Cc1ccc(-c2nc3cc(NC(=O)c4ccc(Cl)cc4Cl)ccc3o2)cc1 | > 864 | > 1050 | > 10000
COc1cc(OC)cc(C(=O)NCc2n[nH]c(=S)n2-c2cccc(C(F)(F)F)c2)c1 | 258 | 261 | > 100000
CCCCN1Cc2ccc(C(N)=O)cc2N=C1C1CC1 | 62 | 212 | > 11400
Nc1ccc(-c2nc3cc(Oc4ccc(Oc5ccc6[nH]c(-c7ccc(N)cc7)nc6c5)cc4)ccc3[nH]2)cc1 | 288 | 246 | 15000
Cc1cc(Nc2cc3ccccc3cc2O)n2ncnc2n1 | 1340 | 1290 | 1750
CCOC(=O)N1CCC(NC(=O)c2c(C)nn(-c3cccc(C)c3)c2-n2cccc2)CC1 | 280 | 1060 | > 100000
O=C(Nc1ccc(-c2nc3cc(-c4nc5ccccc5o4)ccc3[nH]2)cc1)c1ccc([N+](=O)[O-])cc1 | 1050 | 1200 | > 10000
Nc1nc(NCC2CCC(CNS(=O)(=O)c3cccc4ccccc34)CC2)nc2ccccc12 (stereo not drawn) | 684 | 571 | > 10000
COc1cc(C=C(C#N)c2nc3ccccc3[nH]2)ccc1OCc1ccccc1Cl | 757 | 1190 | > 100000
Cc1ccc(C(=O)c2c(C)oc3ccc(O)cc23)cc1 | > 1250 | > 839 | > 10000
O=C(CCl)Nc1ccc(N2CCCCC2)cc1 | 797 | 417 | 41200
Cc1nc2c(c(C)nn2C)c(C)c1CCC(=O)N1CCCC1 | 360 | < 15.8 | > 6850
CC1CC(=O)NN=C1c1ccc(NC(=O)c2ccccc2)cc1 (stereo not drawn) | 305 | 270 | > 10000
COCC(=O)N(C)CCCNc1ccnc2cc(Cl)ccc12 | 156 | 346 | > 10000
COc1ccc(OC)c(-c2ccc(O)c(CNC3CCCCC3)c2)c1 | 842 | 953 | > 10000
Cc1cccc(N2C(N)=NC(N)=NC2(C)C)c1 | 20.2 | 52.8 | 2980
COc1ccc(-n2c(COc3cccc4ccccc34)nnc2SC)cc1 | 524 | 236 | > 100000
c1ccc(CCCNc2ccnc3cc4ccccc4cc23)cc1 | 199 | 209 | 4140

SMILES | EC50 (Plasmodium falciparum [1]) [nM] | EC50 (Plasmodium falciparum [2]) [nM] | CC50 [3] [nM]
COc1ccc(C=C2N=C(c3ccc(Cl)cc3)N(c3ccccc3)C2=O)cc1OC | > 12500 | 1990 | > 100000
OC(CNCc1ccccc1)Cn1c2ccc(Br)cc2c2cc(Br)ccc21 (stereo not drawn) | 312 | 13.5 | 9300
Cc1ccc(S(=O)(=O)N2CCN(C(=O)c3ccccc3)C2c2ccccc2)cc1 (stereo not drawn) | > 12500 | 6290 | 10600
C=C(C)CSc1nc(N)c2c3c(sc2n1)CN(CCC)CC3 | 799 | 383 | > 66300
CCCCCN(C(=O)c1cccc([N+](=O)[O-])c1)C(CC)c1nc2ccccc2c(=O)n1-c1ccccc1OC (stereo not drawn) | > 1250 | 591 | > 10000
CS(=O)(=O)N1CCCCC1C(=O)NCc1ccc(OC2CCN(CC(c3ccccc3)c3ccccc3)CC2)cc1 (stereo not drawn) | 1020 | 22.9 | > 10000
CCOC(=O)c1c(NC(=O)Cc2ccc([N+](=O)[O-])cc2)sc2c1CCCC2 | > 1060 | > 1250 | > 10000
Cc1nc(-c2ccccc2)nc(C(=O)N2CCN(C(=O)NC3CCCCC3)C(C)C2)c1C(=O)OC(C)C (stereo not drawn) | 84.4 | 41.7 | > 100000
Cc1cccc(C)c1N(CC(=O)NCc1ccco1)S(C)(=O)=O | 851 | 725 | > 10000
CCCCNC(=O)C(c1cccc(OC)c1)N1C(=O)c2cc(Oc3ccccc3)ccc2NC(=O)C1CO (stereo not drawn) | 181 | < 8 | > 14000
COc1ccc(CNC(=O)C2CNCC2c2ccc(C(F)(F)F)cc2)cc1 (stereo not drawn) | 165 | 85.7 | 24100
CCCCNC(=O)c1ccc(OC2CCN(CC3CCCCC3)CC2)c(Cl)c1 | 639 | 270 | > 10000
OC(CN1CCN(CC=Cc2ccccc2)CC1)Cn1c2ccc(Br)cc2c2cc(Br)ccc21 (stereo not drawn) | 1960 | 426 | > 54100
COC(=O)c1c(-c2c(Cl)cccc2Cl)noc1NC(=O)NN1CCCCC1 | 277 | 151 | > 100000
Cc1ccnc(Nc2nc(-c3ccc(Cl)cc3)cs2)c1 | 4510 | > 12500 | > 100000
COc1ccc(C(OCC(=O)N2CCN(Cc3ccccc3)CC2)c2ccccc2)cn1 (stereo not drawn) | 604 | 434 | > 10000
COc1ccc(CN2CCc3nc(N4CCCCC4)sc3C2)cc1 | 293 | 301 | > 10000
COC(=O)c1c(C)oc2ccc(N(C(=O)c3ccc(C)cc3)S(=O)(=O)c3ccccc3)cc12 | > 1680 | 690 | > 10000
Cc1ccn(C(=O)NCCNC(=O)Nc2ccc(Cc3ccc(NC(=O)NCCNC(=O)n4ccc(C)n4)cc3)cc2)n1 | > 953 | > 1250 | > 10000
COc1ccc(-c2nc(-c3ccncc3)cnc2N)cc1OC | 35.8 | 45.7 | > 10000
CCc1cc(C(=O)OC)c(NC(=S)NC(C)c2ccncc2)s1 (stereo not drawn) | 4550 | 5160 | > 86900
Clc1ccc(-c2cn3c([n+]2-c2ccccc2)CCC3)cc1 | 257 | 3510 | > 100000
